Measurements as given in ChEMBL document CHEMBL5500381, “Antiviral drug discovery: Pyrimidine entry inhibitors for Zika and dengue viruses” (Eur J Med Chem, 2024).
Converted amounts (≈) assume the structure as drawn. The source made the active and inactive calls. The calls are words filed in the database; no cut-off is given here.

What was measured:
[1] = Cytotoxicity against African green monkey Vero cells assessed as cell viability measured after 72 hrs by MTT assay; format: toxicity, cell-based; conditions: chlorocebus sabaeus
[2] = tested on: dengue virus type 2; test: Anti-viral activity against DENV-2 Thailand/16681/1984 strain infected in african green monkey Vero cells at 0.1 MOI assessed as reduction in virus yield measured after 48 hrs by virus reduction assay; format: functional, organism-based; conditions: Thailand/16681/1984, Vero
[3] = Selectivity index, ratio of CC50 for cytotoxicity against African green monkey Vero cells to EC50 for anti-viral activity against DENV-2 Thailand/16681/1984 strain; format: toxicity, cell-based; conditions: read-out: Selectivity Index
[4] = tested on: Zika virus; test: Anti-viral activity against ZIKV Argentine strain INEVH116141 infected in african green monkey Vero cells at 0.1 MOI assessed as reduction in virus yield measured after 48 hrs by virus reduction assay; format: functional, organism-based
[5] = Selectivity index, ratio of CC50 for cytotoxicity against African green monkey Vero cells to EC50 for anti-viral activity against ZIKV Argentine strain INEVH116141; format: toxicity, cell-based; conditions: read-out: Selectivity Index
[6] = Solubility of the compound in phosphate-buffered saline solution (PBS,pH 7.4) incubated for 24 hrs by shake-flask method; format: physicochemical
[7] = Solubility of the compound in simulated intestinal fluid (SIF,pH 6.8) incubated for 24 hrs by shake-flask method; format: ADME
[8] = Solubility of the compound in simulated gastric fluid (SGF,pH 1.2) incubated for 24 hrs by shake-flask method; format: ADME
[9] = Permeability of the compound by PAMPA assay; format: ADME
[10] = Plasma stability in human plasma measured at 4 hrs; format: ADME, cell-free
[11] = Plasma stability in mouse plasma measured at 4 hrs; format: ADME, cell-free
[12] = tested on: dengue virus type 2; test: Anti-viral activity against DENV-2 Thailand/16681/1984 strain infected in african green monkey Vero cells assessed as reduction in genome level at 10 uM measured after 48 hrs by QRT-PCR analysis; format: functional, organism-based
[13] = tested on: Zika virus; test: Anti-viral activity against ZIKV Argentine strain INEVH116141 infected in african green monkey Vero cells assessed as reduction in genome level at 10 uM measured after 48 hrs by QRT-PCR analysis; format: functional, organism-based
[14] = tested on: dengue virus type 2; test: Anti-viral activity against DENV-2 Thailand/16681/1984 strain infected in african green monkey Vero cells at 0.1 MOI assessed as reduction in fluorescence at 10 uM measured after 48 hrs by epifluorescence microscopy; format: functional, organism-based
[15] = tested on: Zika virus; test: Anti-viral activity against ZIKV Argentine strain INEVH116141 infected in african green monkey Vero cells at 0.1 MOI assessed as reduction in […] at 10 uM measured after 48 hrs by epifluorescence microscopy; format: functional, organism-based
[16] = tested on: dengue virus type 2; test: Anti-viral activity against DENV-2 Thailand/16681/1984 strain infected in african green monkey Vero cells at 0.1 MOI assessed as reduction in fluorescence at 10 uM measured for first 8 hrs by plaque assay; format: functional, organism-based
[17] = tested on: Zika virus; test: Anti-viral activity against ZIKV Argentine strain INEVH116141 infected in african green monkey Vero cells at 0.1 MOI assessed as reduction in […] at 10 uM measured for first 8 hrs by plaque assay; format: functional, organism-based
[18] = tested on: dengue virus type 2; test: Anti-viral activity against DENV-2 Thailand/16681/1984 strain infected in african green monkey Vero cells at 0.1 MOI assessed as reduction in fluorescence at 10 uM measured for 10 to 12 hrs by plaque assay; format: functional, organism-based; conditions: time 10-12 hrs
[19] = tested on: Zika virus; test: Anti-viral activity against ZIKV Argentine strain INEVH116141 infected in african green monkey Vero cells at 0.1 MOI assessed as reduction in […] at 10 uM measured for 10 to 12 hrs by plaque assay; format: functional, organism-based; conditions: time 10-12 hrs
[20] = tested on: dengue virus type 2; test: Virucidal effect in DENV-2 Thailand/16681/1984 strain assessed as inactivation of virus at 2.5 to 10 uM measured after 1.5 hrs incubation by viral inactivation assay; format: functional, organism-based; conditions: dose 2.5-10 µM
[21] = tested on: Zika virus; test: Virucidal effect in ZIKV Argentine strain INEVH116141 strain assessed as inactivation of virus at 2.5 to 10 uM measured after 1.5 hrs incubation by viral inactivation assay; format: functional, organism-based; conditions: dose 2.5-10 µM
[22] = tested on: dengue virus type 2; test: Anti-viral activity against DENV-2 Thailand/16681/1984 strain infected in African green monkey Vero cells at 0.1 MOI assessed as reduction in viral titer at 10 uM pre-treated for 2 hrs before cellular infection followed by infection 1 hr incubated with compound free culture medium for 48 hrs; format: functional, organism-based
[23] = tested on: dengue virus type 2; test: Anti-viral activity against DENV-2 Thailand/16681/1984 strain infected in African green monkey Vero cells at 0.1 MOI assessed as reduction in viral titer at 10 uM pre-treated for 4 hrs before cellular infection followed by infection 1 hr incubated with compound free culture medium for 48 hrs; format: functional, organism-based
[24] = tested on: Zika virus; test: Anti-viral activity against ZIKV Argentine strain INEVH116141 infected in African green monkey Vero cells at 0.1 MOI assessed as reduction in viral titer at 10 uM pre-treated for 2 hrs before cellular infection followed by infection 1 hr incubated with compound free culture medium for 48 hrs; format: functional, organism-based
[25] = tested on: Zika virus; test: Anti-viral activity against ZIKV Argentine strain INEVH116141 infected in African green monkey Vero cells at 0.1 MOI assessed as reduction in viral titer at 10 uM pre-treated for 4 hrs before cellular infection followed by infection 1 hr incubated with compound free culture medium for 48 hrs; format: functional, organism-based
[26] = tested on: dengue virus type 2; test: Inhibition of DENV-2 Thailand/16681/1984 strain infection in African green monkey Vero cells assessed as absorption treated with compound for 1 hr during infection at 4 degC; format: functional, organism-based
[27] = tested on: Zika virus; test: Inhibition of ZIKV Argentine strain INEVH116141 infection in African green monkey Vero cells assessed as absorption treated with compound for 1 hr during infection at 4 degC; format: functional, organism-based
[28] = tested on: dengue virus type 2; test: Inhibition of DENV-2 Thailand/16681/1984 strain infection in African green monkey Vero cells assessed as internalization (INT) treated after 1 hr post infection measured after 24 to 48 hrs; format: functional; conditions: time 24-48 hrs
[29] = tested on: dengue virus type 2; test: Inhibition of DENV-2 Thailand/16681/1984 strain infection in African green monkey Vero cells assessed as post-internalization (Post-INT) treated after 2 hr post infection measured after 24 hrs; format: functional
[30] = tested on: dengue virus type 2; test: Inhibition of DENV-2 Thailand/16681/1984 strain infection in African green monkey Vero cells assessed as post-internalization (Post-INT) treated after 2 hr post infection measured after 48 hrs; format: functional
[31] = tested on: Zika virus; test: Inhibition of ZIKV Argentine strain INEVH116141 infection in African green monkey Vero cells assessed as internalization (INT) treated after 1 hr post infection measured after 24 hrs; format: functional
[32] = tested on: Zika virus; test: Inhibition of ZIKV Argentine strain INEVH116141 infection in African green monkey Vero cells assessed as internalization (INT) treated after 1 hr post infection measured after 48 hrs; format: functional
[33] = tested on: Zika virus; test: Inhibition of ZIKV Argentine strain INEVH116141 infection in African green monkey Vero cells assessed as post-internalization (Post-INT) treated after 2 hr post infection measured after 24 hrs; format: functional
[34] = tested on: Zika virus; test: Inhibition of ZIKV Argentine strain INEVH116141 infection in African green monkey Vero cells assessed as post-internalization (Post-INT) treated after 2 hr post infection measured after 48 hrs; format: functional
[35] = Plasma stability in human plasma measured after 24 hrs relative to control; format: ADME, cell-free; conditions: read-out: Activity
[36] = Metabolic stability in mouse liver microsomes assessed as half life at 3 uM in presence of NADPH by HPLC-MS analysis; format: ADME, Microsome
[37] = Metabolic stability in mouse liver microsomes assessed as intrinsic clearance at 3 uM in presence of NADPH by HPLC-MS analysis; format: ADME, Microsome
[38] = Metabolic stability in mouse liver microsomes assessed as degradation at 3 uM in presence of NADPH measured upto 45 mins by HPLC-MS analysis; format: ADME, Microsome; conditions: read-out: CLH

CC1(C)CC(Nc2nc(Nc3ccc(-c4ccccc4)cc3)cc(C(F)(F)F)n2)CC(C)(C)N1
CC50 at 72 h [1]: 2.06 µM

CC1(C)CC(Nc2ncnc(Nc3ccc(-c4ccccc4)cc3)n2)CC(C)(C)N1
CC50 at 72 h [1]: 5.01 µM

CC1(C)CC(Nc2nc(Nc3ccc(-c4ccccc4)cc3)c3sccc3n2)CC(C)(C)N1
CC50 at 72 h [1]: 6.4 µM
EC50 [2]: 4.95 µM
selectivity ratio [3]: 1.3
EC50 [4]: 4.15 µM
selectivity ratio [5]: 1.54

CC1(C)CC(Nc2nccc(NCc3ccc(Cl)cc3)n2)CC(C)(C)N1
CC50 at 72 h [1]: 7.2 µM
EC50 [2]: 4.67 µM
selectivity ratio [3]: 1.54
EC50 [4]: 8.14 µM
selectivity ratio [5]: 0.88

FC(F)(F)c1cc(Nc2ccc(-c3ccccc3)cc2)nc(NCCN2CCCCC2)n1
CC50 at 72 h [1]: 5.74 µM
EC50 [2]: 0.76 µM
selectivity ratio [3]: 7.55
EC50 [4]: 1.11 µM
selectivity ratio [5]: 5.12
solubility thermodynamic at 24 h [6]: 4 µg/mL (≈ 9.06 µM)
solubility thermodynamic at 24 h [7]: 10 µg/mL (≈ 22.7 µM)
solubility thermodynamic at 24 h [8]: 506 µg/mL (≈ 1150 µM)
permeability [9]: Impermeable
Stability [10]: Stable
Stability [11]: Stable

CN(Cc1ccc(Cl)cc1)c1cc(C(F)(F)F)nc(NCCN2CCCCC2)n1
CC50 at 72 h [1]: 8.18 µM

FC(F)(F)c1cc(NCc2ccc(Cl)cc2)nc(NCCN2CCCCC2)n1
CC50 at 72 h [1]: 23.8 µM
EC50 [2]: 1.16 µM
selectivity ratio [3]: 20.5
EC50 [4]: 2.61 µM
selectivity ratio [5]: 9.13
Activity [12]: Active
Activity [13]: Active
Activity [14]: Active
Activity [15]: Active
Activity [16]: Active
Activity [17]: Active
Activity [18]: Active
Activity [19]: Active
Activity [20]: inactive
Activity [21]: inactive
Activity [22]: Active
Activity [23]: Active
Activity [24]: inactive
Activity [25]: Active
inhibition [26]: inactive
inhibition [27]: inactive
inhibition (INH) [28]: <50%
inhibition (INH) [29]: 73.2%
inhibition (INH) [30]: 85.52%
inhibition (INH) [31]: 26.36%
inhibition (INH) [32]: 29.22%
inhibition (INH) [33]: 44.86%
inhibition (INH) [34]: 43.7%
solubility thermodynamic at 24 h [6]: 507 µg/mL (≈ 1230 µM)
solubility thermodynamic at 24 h [7]: 1690 µg/mL (≈ 4080 µM)
solubility thermodynamic at 24 h [8]: 76 µg/mL (≈ 184 µM)
permeability [9]: Permeable
Stability [10]: Stable
Stability [11]: Stable
remaining at 24 h [35]: 20%
half-life at 3 µM [36]: 8.6 min
CLH [37]: 179 µL/min
microsomal CLint at 3 µM [38]: 179 µL/min/mg

COc1ccc(CNc2cc(C(F)(F)F)nc(NCCN3CCCCC3)n2)cc1
CC50 at 72 h [1]: 38.2 µM
EC50 [2]: > 20 µM
selectivity ratio [3]: < 2
EC50 [4]: 12.5 µM
selectivity ratio [5]: 3.07

Cc1ccc(CNc2cc(C(F)(F)F)nc(NCCN3CCCCC3)n2)cc1
CC50 at 72 h [1]: 49 µM
EC50 [2]: > 20 µM
selectivity ratio [3]: < 2.5
EC50 [4]: 13.5 µM
selectivity ratio [5]: 3.63

c1ccc(-c2ccc(Nc3nc(NCCN4CCCCC4)nc4ccsc34)cc2)cc1
CC50 at 72 h [1]: 7.5 µM
EC50 [2]: 8.15 µM
selectivity ratio [3]: 0.92
EC50 [4]: 4.1 µM
selectivity ratio [5]: 1.83

CC1(C)CC(Nc2nccc(Nc3ccc(Cl)cc3)n2)CC(C)(C)N1
CC50 at 72 h [1]: 5.19 µM
EC50 [2]: 3.15 µM
selectivity ratio [3]: 1.64
EC50 [4]: 2.48 µM
selectivity ratio [5]: 2.09

Nc1ccc(CNc2cc(C(F)(F)F)nc(NCCN3CCCCC3)n2)cc1
CC50 at 72 h [1]: 8.92 µM
